Results from US11124510B2, “Alkyl chain modified imidazoquinoline TLR7/8 agonist compounds and uses thereof” (Dynavax Technologies Corporation, priority 2017, dated 2021).

How the values were obtained:
CT26 colon carcinoma [1] = assay: Anti-tumor efficacy in combination with anti-PD-1 antibody in dual flank CT26 colon carcinoma-bearing mice; type: in vivo; details: 5,000 ng single intratumoral dose day 14, in combination with anti-PD-1
Description: All in vivo procedures were conducted in accordance with approved IACUC protocols. The animals were housed in a facility that is accredited by the AALAC. Wild-type female Balb/c mice (15-20 g) were obtained from Envigo (Hayward, Calif.) and acclimated for 2-3 days prior to use.
The pharmaceutical compositions were made using Compound No. 63-10 or 63-33 at final concentrations of 50,000 ng/mL in a manner similar to that described for Example B2-1. […] On day 0, mice were anesthetized with 1% isoflurane, and 80,000 CT26 tumor cells in 200 uL of RMPI-1640 culture media plus 2.5% fetal bovine serum were injected subcutaneously in both the right and left flanks. Tumors (left and right) were allowed to grow until day 8, when the right and left flank tumor sizes had reached approximately 35 mm^3, at which point mice were injected intraperitoneally with 250 μg of anti-PD-1 antibody formulated in phosphate buffered saline or a phosphate buffered saline vehicle control. The anti-PD-1 treatments were repeated on experimental days 12, 15, 19, 22, and 26. On experimental day 14, when the right (injected) and left (distal) flank tumors had reached approximately 100 mm^3, mice were randomized into treatment groups. […] Tumor sizes were measured twice weekly from days 14 through day 29 with calipers, with tumor volumes calculated using the formula: length, multiplied by width, multiplied by width, divided by 2.

TLR7 = TLR7 (Homo sapiens (Human), UniProt Q9NYK1); assay: TLR7 agonist bioactivity: induction of IFNα protein in pDC-enriched PBMC cultures (ELISA, 24 h); type: cell-based; details: less potent than IMDQ
Description: Plasmacytoid dendritic cell (pDC)—enriched peripheral blood mononuclear cells (PBMCs) were prepared from the blood of a series of human donors (3-5 donors/experiment). PBMCs were isolated using Ficoll-Paque Premium® (GE Healthcare, Chicago Ill.) using methods well known to those in the art. pDCs were magnetically isolated from the total recovered PBMC population using CD304 (BDCA-4/Neuropilin-1) microbeads (Miltenyi Biotec, San Diego Calif.), according to the manufacturer's instructions. Isolated pDCs were then added back to between 1 and 2×10^8 of the corresponding donor's PBMCs for relative enrichment of this cell type. […] Culture supernatants were collected and interferon-alpha (IFNα) protein levels were measured by ELISA (MabTech, Cincinnati Ohio), according to the manufacturer's instructions.

serum IL-6 and IL-12p40 = assay: In vivo systemic immune activation assay: serum IL-6 and IL-12p40 by ELISA after single subcutaneous injection; set-up: species or system mice; details: for serum IL-6 / serum IL-12p40: 5 μg subcutaneously in footpad, 95% sesame oil/5% ethanol, ± SEM
Description: Small molecule TLR7 and TLR7/8 agonists derived from the 1H-imidazo[4,5-c]quinoline privileged template (see e.g., Imiquimod, Resiquimod) are known to rapidly distribute to the systemic compartment following intratumoral, subcutaneous, or intramuscular injection. Broad systemic distribution of these agonist compounds in wild-type mice induces TLR7-dependent cytokine responses, primarily in spleen and liver cells, which can subsequently be detected in the serum within 3-6 hours. The rapid increase in serum cytokine biomarkers (e.g., IL-6 and IL-12p40) can be used to assess the kinetics of systemic distribution of a locally administered TLR agonist.
The kinetics of distribution of pharmaceutical compositions comprised of Compound Nos. 63-00, 63-17, or 63-10 formulated in 95% sesame oil/5% ethanol (v/v) were assessed following a single subcutaneous injection in wild-type mice. All in vivo procedures were conducted in accordance with approved Institutional Animal Care and Use Committee (IACUC) protocols. The animals were housed in a facility that is accredited by the Association for Accreditation and Laboratory Animal Care (AALAC, Frederick Md.). Wild-type female BALB/c mice (15-20 gm) were obtained from Envigo (Hayward, Calif.) and acclimated for 2-3 days prior to use.
The pharmaceutical compositions were made with the three compounds, at a final concentration of 200 μg/mL, in a manner similar to that described in Example B2-1. At T=0, groups of 3 mice were anesthetized with 1% isoflurane and injected subcutaneously in the right footpad with 5 μg of each of the three compounds, or a vehicle control, in 25 uL of 95% sesame oil/5% ethanol (v/v). Then, at T=3, 6, and 24 hours, three animals from each group were anesthetized with 1% isoflurane to facilitate blood collection by cardiac puncture. Samples were processed to serum, and stored at −20° C. for further analysis.

CT26 colon carcinoma [2] = assay: Anti-tumor efficacy of squalene oil-in-water nanoemulsion with or without AH-1 peptide in two flank CT26 colon carcinoma-bearing mice; type: in vivo
Description: The effect of repeated weekly doses of intratumorally-delivered pharmaceutical compositions comprised of Compound No. 63-10 formulated in a squalene-based oil-in-water nanoemulsion that was co-formulated with the CT-26 tumor associated AH-1 […] peptide (immunodominant epitope sequence from the endogenous retroviral gene product gp70; see e.g., Rice J, Buchan S and Stevenson F 2002 J Immunol 169:3908-3913) on injected and distal tumor growth inhibition was assessed in CT26 colon carcinoma-bearing Balb/c mice bearing tumors in 2 flanks. All in vivo procedures were conducted in accordance with approved IACUC protocols. The animals were housed in a facility that is accredited by the AALAC. Wild-type female Balb/c mice (15-20 g) were obtained from Envigo (Hayward, Calif.) and acclimated for 2-3 days prior to use.
Pharmaceutical compositions comprised of squalene-based oil-in-water nanoemulsions were made generally as described in Example B2-2. […] Right (injected) and left (distal) tumor volumes were then measured twice weekly from days 8 through day 30 with calipers, with tumor volumes calculated using the formula: length, multiplied by width, multiplied by width, divided by 2.

Sequence of TLR7 (Q9NYK1 27-1049): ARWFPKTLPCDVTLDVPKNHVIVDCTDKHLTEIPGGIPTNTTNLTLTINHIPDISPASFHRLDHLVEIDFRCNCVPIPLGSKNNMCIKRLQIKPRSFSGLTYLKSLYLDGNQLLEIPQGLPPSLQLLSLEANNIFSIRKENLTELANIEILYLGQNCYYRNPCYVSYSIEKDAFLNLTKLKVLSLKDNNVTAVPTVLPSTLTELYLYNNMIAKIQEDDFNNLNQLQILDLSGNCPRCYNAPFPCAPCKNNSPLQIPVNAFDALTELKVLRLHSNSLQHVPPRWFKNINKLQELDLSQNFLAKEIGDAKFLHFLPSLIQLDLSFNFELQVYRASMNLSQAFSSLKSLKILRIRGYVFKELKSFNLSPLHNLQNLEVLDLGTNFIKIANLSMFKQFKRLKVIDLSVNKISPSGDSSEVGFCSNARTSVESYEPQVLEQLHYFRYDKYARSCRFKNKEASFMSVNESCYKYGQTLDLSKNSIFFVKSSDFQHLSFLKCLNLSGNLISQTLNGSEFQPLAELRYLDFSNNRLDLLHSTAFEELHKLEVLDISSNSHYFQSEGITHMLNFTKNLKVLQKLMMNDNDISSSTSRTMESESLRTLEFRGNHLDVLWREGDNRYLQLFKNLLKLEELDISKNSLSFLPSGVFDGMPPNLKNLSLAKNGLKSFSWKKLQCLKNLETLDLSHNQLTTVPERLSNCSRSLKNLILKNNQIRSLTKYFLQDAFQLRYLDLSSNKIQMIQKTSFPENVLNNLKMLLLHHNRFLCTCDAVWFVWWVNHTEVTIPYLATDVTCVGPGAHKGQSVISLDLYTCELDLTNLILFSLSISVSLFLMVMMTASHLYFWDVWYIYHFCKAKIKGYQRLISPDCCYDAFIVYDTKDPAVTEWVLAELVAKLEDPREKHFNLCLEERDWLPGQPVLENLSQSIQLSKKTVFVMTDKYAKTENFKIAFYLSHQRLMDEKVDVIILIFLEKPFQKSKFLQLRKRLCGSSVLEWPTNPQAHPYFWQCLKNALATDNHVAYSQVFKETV

fold loss of TLR7 agonist potency compared to Compound No. 63-00 (IMDQ) (TLR7): 2 fold
Structure (SMILES): CCCCCCCCCCCCCC(=O)NCc1ccc(Cn2c(CCCC)nc3c(N)nc4ccccc4c32)cc1 [Compound No. 63-10, N-(4-((4-amino-2-butyl-1H-imidazo[4,5-c]quinolin-1-yl)methyl)benzyl)tetradecanamide]
tumor growth inhibition in the injected tumor (right flank) compared to the anti-PD-1 treatment alone (CT26 colon carcinoma [1]): greater tumor growth inhibition | tumor growth inhibition in the distal tumor (left flank) compared to the anti-PD-1 treatment alone (CT26 colon carcinoma [1]; day 29): no improvement | serum IL-6 (serum IL-6 and IL-12p40; 3 hours): 49 ± 32 pg/mL | serum IL-12p40 (serum IL-6 and IL-12p40; 3 hours): 1,012±246 pg/mL | serum IL-6 (serum IL-6 and IL-12p40; 6 hours): 33 ± 4 pg/mL | serum IL-12p40 (serum IL-6 and IL-12p40; 6 hours): 2,179±597 pg/mL | serum IL-6 (serum IL-6 and IL-12p40; 24 hours): 32 ± 2 pg/mL | serum IL-12p40 (serum IL-6 and IL-12p40; 24 hours): 2,436±237 pg/mL | increase in serum cytokines (serum IL-6 and IL-12p40; at 3, 6, or 24 hours, 5 μg subcutaneously): no detectable increase | tumor growth inhibition in the distal (left) tumor compared to the nanoemulsion vehicle control (CT26 colon carcinoma [2]; day 23, 50 ng intratumoral days 8, 12, 16, 20): not significantly different from the vehicle control | tumor growth inhibition in the injected (right) tumor compared to the nanoemulsion vehicle control (CT26 colon carcinoma [2]; day 27, 50 ng intratumoral days 8, 12, 16, 20): not significantly different from the vehicle control
